Reference: BindingDB's records for doi:10.1124/jpet.104.066761 (National Institutes of Health, 2004)
pKi: −log10 of the molar value. Square brackets hold non-standard residues; d marks the D form. Peptide text beside a SMILES is read from it. Nle = CCCC[C@H](N)C(=O)O; βAla = NCCC(=O)O

Columns and labels:
Neuromedin-B receptor = Neuromedin-B receptor (Homo sapiens, UniProt P28336)
[1] = target: T1, Bombesin receptor subtype-3 (Homo sapiens, UniProt P32247)
T1 sequence (P32247 whole entry): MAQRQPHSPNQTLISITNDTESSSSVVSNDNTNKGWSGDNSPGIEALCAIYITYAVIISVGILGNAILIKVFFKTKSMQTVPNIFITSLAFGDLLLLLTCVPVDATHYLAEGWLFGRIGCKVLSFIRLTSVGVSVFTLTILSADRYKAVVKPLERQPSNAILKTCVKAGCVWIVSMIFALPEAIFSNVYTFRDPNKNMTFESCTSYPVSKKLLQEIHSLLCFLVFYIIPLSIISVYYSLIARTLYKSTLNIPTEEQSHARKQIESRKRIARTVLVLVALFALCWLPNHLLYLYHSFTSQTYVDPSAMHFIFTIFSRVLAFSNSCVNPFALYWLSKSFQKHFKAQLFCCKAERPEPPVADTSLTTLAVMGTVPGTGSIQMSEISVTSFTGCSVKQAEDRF

[2] = target: Gastrin-releasing peptide receptor (Homo sapiens) (UniProt P30550)
Sequence of Gastrin-releasing peptide receptor (Homo sapiens) (P30550 whole entry, looked up): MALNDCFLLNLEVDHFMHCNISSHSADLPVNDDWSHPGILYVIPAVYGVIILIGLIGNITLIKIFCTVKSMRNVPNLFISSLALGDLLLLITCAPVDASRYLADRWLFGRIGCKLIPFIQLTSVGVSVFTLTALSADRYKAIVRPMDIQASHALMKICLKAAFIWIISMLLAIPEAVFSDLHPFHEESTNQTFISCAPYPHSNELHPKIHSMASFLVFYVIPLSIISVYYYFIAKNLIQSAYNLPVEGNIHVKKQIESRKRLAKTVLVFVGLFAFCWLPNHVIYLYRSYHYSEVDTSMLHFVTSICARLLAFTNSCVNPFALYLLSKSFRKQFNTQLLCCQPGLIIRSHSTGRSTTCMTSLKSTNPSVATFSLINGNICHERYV

[3] = target: Gastrin-releasing peptide receptor (Homo sapiens) (UniProt P30550); remark: listed apart in the source

Sequence of Neuromedin-B receptor (P28336 whole entry): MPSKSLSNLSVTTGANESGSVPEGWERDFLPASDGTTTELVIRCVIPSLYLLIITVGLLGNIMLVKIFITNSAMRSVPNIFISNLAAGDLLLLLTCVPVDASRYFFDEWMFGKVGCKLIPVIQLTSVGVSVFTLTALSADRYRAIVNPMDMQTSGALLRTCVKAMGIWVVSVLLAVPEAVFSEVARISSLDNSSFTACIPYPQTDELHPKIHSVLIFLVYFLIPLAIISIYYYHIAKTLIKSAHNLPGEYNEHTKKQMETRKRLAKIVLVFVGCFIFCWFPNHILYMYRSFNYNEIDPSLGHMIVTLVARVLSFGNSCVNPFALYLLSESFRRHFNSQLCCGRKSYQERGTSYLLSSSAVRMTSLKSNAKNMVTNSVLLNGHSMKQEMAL

SMILES | pKi (Neuromedin-B receptor) | pKi [1] | pKi [2] | pKi [3]
CSCC[C@H](NC(=O)[C@H](Cc1ccccc1)NC(=O)[C@H](Cc1cnc[nH]1)NC(=O)CNC(=O)[C@@H](NC(=O)[C@H](C)NC(=O)[C@H](Cc1c[nH]c2ccccc12)NC(=O)[C@H](CC(C)C)NC(=O)[C@H](CC(N)=O)NC(=O)CN)[C@@H](C)O)C(N)=O [NMB] | 9.26 | < 5.00 |  | 
CCCC[C@H](NC(=O)[C@H](Cc1ccccc1)NC(=O)[C@H](Cc1cnc[nH]1)NC(=O)C[C@H](NC(=O)[C@@H](NC(=O)[C@H](C)NC(=O)[C@H](Cc1c[nH]c2ccccc12)NC(=O)[C@H](CCC(N)=O)NC(=O)[C@H](N)Cc1ccc(O)cc1)C(C)C)c1ccccc1Cl)C(N)=O [NSC_0] | 5.23 | 7.07 | 6.40 | 
CCCC[C@H](NC(=O)[C@H](Cc1ccccc1)NC(=O)[C@H](Cc1cnc[nH]1)NC(=O)C[C@@H](NC(=O)[C@@H](NC(=O)[C@H](C)NC(=O)[C@H](Cc1c[nH]c2ccccc12)NC(=O)[C@H](CCC(N)=O)NC(=O)[C@H](N)Cc1ccc(O)cc1)C(C)C)c1ccccc1Cl)C(N)=O [NSC_0] | 5.16 | 7.62 | 6.64 | 
CCCC[C@H](NC(=O)[C@H](Cc1ccccc1)NC(=O)[C@H](Cc1cnc[nH]1)NC(=O)C[C@H](NC(=O)[C@@H](NC(=O)[C@H](C)NC(=O)[C@H](Cc1c[nH]c2ccccc12)NC(=O)[C@H](CCC(N)=O)NC(=O)[C@H](N)Cc1ccc(O)cc1)C(C)C)c1ccc(Cl)cc1)C(N)=O [NSC_0] | 5.71 | 6.11 | 6.13 | 
CCCC[C@H](NC(=O)[C@H](Cc1ccccc1)NC(=O)[C@H](Cc1cnc[nH]1)NC(=O)C[C@H](NC(=O)[C@@H](NC(=O)[C@H](C)NC(=O)[C@H](Cc1c[nH]c2ccccc12)NC(=O)[C@H](CCC(N)=O)NC(=O)[C@H](N)Cc1ccc(O)cc1)C(C)C)c1cccc(Cl)c1)C(N)=O [NSC_0] | < 5.00 | 6.97 | 5.60 | 
CCCC[C@H](NC(=O)[C@H](Cc1ccccc1)NC(=O)[C@H](Cc1c[nH]cn1)NC(=O)C[C@@H](NC(=O)[C@@H](NC(=O)[C@H](C)NC(=O)[C@H](Cc1c[nH]c2ccccc12)NC(=O)[C@H](CCC(N)=O)NC(=O)[C@H](N)Cc1ccc(O)cc1)C(C)C)c1ccccc1)C(N)=O [NSC_0] | 5.62 | 8.55 | 6.82 | 
CCCC[C@H](NC(=O)[C@H](Cc1ccccc1)NC(=O)[C@H](Cc1cnc[nH]1)NC(=O)C[C@@H](NC(=O)[C@@H](NC(=O)[C@H](C)NC(=O)[C@H](Cc1c[nH]c2ccccc12)NC(=O)[C@H](CCC(N)=O)NC(=O)[C@H](N)Cc1ccc(O)cc1)C(C)C)c1cccc(Cl)c1)C(N)=O [NSC_0] | 6.08 | 7.80 | 6.96 | 
CCCC[C@H](NC(=O)[C@H](Cc1ccccc1)NC(=O)[C@H](Cc1cnc[nH]1)NC(=O)[C@H](CNC(=O)[C@@H](NC(=O)[C@H](C)NC(=O)[C@H](Cc1c[nH]c2ccccc12)NC(=O)[C@H](CCC(N)=O)NC(=O)[C@H](N)Cc1ccc(O)cc1)C(C)C)NC(C)=O)C(N)=O [NSC_0] | 7.05 | 7.80 | 8.77 | 
CCCC[C@H](NC(=O)[C@H](Cc1ccccc1)NC(=O)[C@H](Cc1cnc[nH]1)NC(=O)[C@@H](N)CNC(=O)[C@@H](NC(=O)[C@H](C)NC(=O)[C@H](Cc1c[nH]c2ccccc12)NC(=O)[C@H](CCC(N)=O)NC(=O)[C@H](N)Cc1ccc(O)cc1)C(C)C)C(N)=O [NSC_0] | 7.37 | 8.64 | 9.00 | 
CCCC[C@H](NC(=O)[C@H](Cc1ccccc1)NC(=O)[C@H](Cc1c[nH]cn1)NC(=O)C[C@@H](NC(=O)[C@@H](NC(=O)[C@H](C)NC(=O)[C@H](Cc1c[nH]c2ccccc12)NC(=O)[C@H](CCC(N)=O)NC(=O)[C@H](N)Cc1ccc(O)cc1)C(C)C)c1ccc(Cl)cc1)C(N)=O [NSC_0] | 5.14 | 8.09 | 5.73 | 
CCCC[C@H](NC(=O)[C@H](Cc1ccccc1)NC(=O)[C@H](Cc1cnc[nH]1)NC(=O)C[C@H](NC(=O)[C@@H](NC(=O)[C@H](C)NC(=O)[C@H](Cc1c[nH]c2ccccc12)NC(=O)[C@H](CCC(N)=O)NC(=O)[C@H](N)Cc1ccc(O)cc1)C(C)C)C(=O)NCc1ccccc1)C(N)=O [NSC_0] | 6.19 | 6.15 |  | 6.40
CCCC[C@H](NC(=O)[C@H](Cc1ccccc1)NC(=O)[C@H](Cc1cnc[nH]1)NC(=O)C[C@H](NC(=O)[C@@H](NC(=O)[C@H](C)NC(=O)[C@H](Cc1c[nH]c2ccccc12)NC(=O)[C@H](CCC(N)=O)NC(=O)[C@H](N)Cc1ccc(O)cc1)C(C)C)C(=O)O)C(N)=O [NSC_0] | 6.37 | 6.31 | 6.40 | 
CCCC[C@H](NC(=O)[C@H](Cc1ccccc1)NC(=O)[C@H](Cc1cnc[nH]1)NC(=O)C[C@H](NC(=O)[C@@H](NC(=O)[C@H](C)NC(=O)[C@H](Cc1c[nH]c2ccccc12)NC(=O)[C@H](CCC(N)=O)NC(=O)[C@H](N)Cc1ccc(O)cc1)C(C)C)c1ccccc1)C(N)=O [CAS_0] |  |  | 6.96 | 
CC(C)[C@H](NC(=O)[C@H](C)NC(=O)[C@H](Cc1c[nH]c2ccccc12)NC(=O)[C@H](CCC(N)=O)NC(=O)[C@H](N)Cc1ccc(O)cc1)C(=O)NCCC(=O)N[C@@H](Cc1cnc[nH]1)C(=O)N[C@@H](Cc1ccccc1)C(=O)NC[C@H](N)C(N)=O [NSC_0] | < 5.00 | 5.62 | 7.07 | 
CCCC[C@H](NC(=O)[C@H](Cc1ccccc1)NC(=O)[C@H](Cc1cnc[nH]1)NC(=O)CCNC(=O)[C@@H](NC(=O)[C@H](C)NC(=O)[C@H](Cc1c[nH]c2ccccc12)NC(=O)[C@H](CCC(N)=O)NC(=O)[C@H](N)Cc1ccc(O)cc1)C(C)C)C(N)=O [NSC_0] (H-[dY]QWAV[βAla]HF[Nle]-NH2) | 8.23 | 9.09 |  | 
CCCC[C@H](NC(=O)[C@H](Cc1ccccc1)NC(=O)[C@H](Cc1cnc[nH]1)NC(=O)[C@H](CNC(=O)[C@@H](NC(=O)[C@H](C)NC(=O)[C@H](Cc1c[nH]c2ccccc12)NC(=O)[C@H](CCC(N)=O)NC(=O)[C@H](N)Cc1ccc(O)cc1)C(C)C)NC(=O)c1ccccc1)C(N)=O [NSC_0] | 7.26 | 7.91 | 8.51 | 
